Test results published in the supplement of paper PMC11061612.

Key:
Assay in all cases: combination Emax (second highest fraction inhibited in the dose matrix, 72 h); higher = more inhibition; extreme values may be limits of the assay
[1] = test system: NCI-H2170 (Squamous Cell Lung Carcinoma)
Summary of the method: (§1)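 After 24 hours at 37°C and 5% CO2 in 1536-well plates, cells in DMEM/F12 or RPMI plus 10% FBS received two-drug dose matrices for 72 hours. Viability came from CellTiter-Glo 2.0 luminescence and was scaled as inhibition, anchored at 0 by vehicle wells and at 1 by blank wells. Combination Emax is taken as the second-highest inhibition in the matrix, and Bliss excess as the observed combination effect less EA + EB − EA·EB, with EA and EB the single-agent effects.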

[2] = test system: HT-1197 (Bladder Carcinoma)
Summary of the method: as §1

[3] = test system: SCC90 (Head and Neck Carcinoma)
Summary of the method: as §1

[4] = test system: COR-L105 (Lung Adenocarcinoma)
Summary of the method: as §1

[5] = test system: GRANTA-519 (B-Cell Non-Hodgkin's Lymphoma)
Summary of the method: as §1

[6] = test system: KNS-62 (Squamous Cell Lung Carcinoma)
Summary of the method: as §1

[7] = test system: CAL-85-1 (Breast Carcinoma)
Summary of the method: as §1

SK-N-DZ (Neuroblastoma) = test system: SK-N-DZ (Neuroblastoma)
Summary of the method: as §1

NCI-H2452 (Mesothelioma) = test system: NCI-H2452 (Mesothelioma)
Summary of the method: as §1

[8] = test system: SBC-3 (Small Cell Lung Carcinoma)
Summary of the method: as §1

[9] = test system: NCI-H1648 (Lung Adenocarcinoma)
Summary of the method: as §1

[10] = test system: SNU-1 (Gastric Carcinoma)
Summary of the method: as §1

MG-63 (Osteosarcoma) = test system: MG-63 (Osteosarcoma)
Summary of the method: as §1

[11] = test system: BT-474 (Breast Carcinoma)
Summary of the method: as §1

HT-144 (Melanoma) = test system: HT-144 (Melanoma)
Summary of the method: as §1

[12] = test system: OVKATE (Ovarian Carcinoma)
Summary of the method: as §1

A375 (Melanoma) = test system: A375 (Melanoma)
Summary of the method: as §1

[13] = test system: SUP-HD1 (Hodgkin's Lymphoma)
Summary of the method: as §1

[14] = test system: SBC-5 (Small Cell Lung Carcinoma)
Summary of the method: as §1

[15] = test system: SW1463 (Colorectal Carcinoma)
Summary of the method: as §1

SMILES | combination Emax [1] | combination Emax [2] | combination Emax [3] | combination Emax [4] | combination Emax [5] | combination Emax [6] | combination Emax [7] | combination Emax (SK-N-DZ (Neuroblastoma)) | combination Emax (NCI-H2452 (Mesothelioma)) | combination Emax [8] | combination Emax [9] | combination Emax [10] | combination Emax (MG-63 (Osteosarcoma)) | combination Emax [11] | combination Emax (HT-144 (Melanoma)) | combination Emax [12] | combination Emax (A375 (Melanoma)) | combination Emax [13] | combination Emax [14] | combination Emax [15]
CC(=O)c1c(C)c2cnc(Nc3ccc(N4CCNCC4)cn3)nc2n(C2CCCC2)c1=O [Palbociclib] + CC1(C)CCC(CN2CCN(c3ccc(C(=O)NS(=O)(=O)c4ccc(NCC5CCOCC5)c([N+](=O)[O-])c4)c(Oc4cnc5[nH]ccc5c4)c3)CC2)=C(c2ccc(Cl)cc2)C1 [Venetoclax] (first compound max 10 µM, 7x7, partner max 1 µM) | 0.362 | 0.16 | 0.155 | 0.0862 | 0.541 | 0.268 | 0.0543 | 0.516 | 0.282 | 0.613 | 0.325 | 0.451 | 0.345 | 0.0591 | 0.555 | 0.12 | 0.195 | 0.758 | 0.23 | 0.603
Cc1c2c(nn1C)CSCc1cc(n(C)n1)CSc1cc(c3ccccc3c1)OCCCc1c(C(=O)O)n(C)c3c-2c(Cl)ccc13 [AZD5991] + C=CCn1c(=O)c2cnc(Nc3ccc(N4CCN(C)CC4)cc3)nc2n1-c1cccc(C(C)(C)O)n1 [AZD1775] (first compound max 1 µM, partner max 1 µM) | 0.749 | 0.593 | 0.952 | 0.454 | 0.863 | 0.223 | 0.43 | 0.948 | 0.623 | 0.602 | 0.796 | 0.6 | 0.395 | 0.469 | 0.969 | 0.428 | 0.818 | 0.82 | 0.694 | 0.471
CN(C)CCCOc1ccc(-c2ccc3ncc4c(c3c2)n(C2CCOCC2)c(=O)n4C)cn1 [AZD0156] + C[C@@H]1COCCN1C2=NC(=NC(=C2)C3(CC3)[S@](=N)(=O)C)C4=C5C=CNC5=NC=C4 [AZD6738] (first compound max 1 µM, 7x7, partner max 10 µM) | 0.799 | 0.526 | 0.358 | 0.472 | 0.82 | 0.485 | 0.446 | 0.975 | 0.559 | 0.798 | 0.676 | 0.769 | 0.706 | 0.198 | 0.721 | 0.257 | 0.815 | 0.785 | 0.813 | 0.558
Cn1cnc2c(F)c(Nc3ccc(Br)cc3Cl)c(C(=O)NOCCO)cc21 [Selumetinib] + C[C@@H]1COCCN1C2=NC(=NC(=C2)C3(CC3)[S@](=N)(=O)C)C4=C5C=CNC5=NC=C4 [AZD6738] (first compound max 10 µM, 7x7, partner max 10 µM) | 0.618 | 0.422 | 0.764 | 0.483 | 0.909 | 0.524 | 0.559 | 0.986 | 0.363 | 0.656 | 0.752 | 0.79 | 0.547 | 0.0449 | 0.864 | 0.199 | 0.772 | 0.668 | 0.814 | 0.643
CCc1c2c(nc3ccc(O)cc13)-c1cc3c(c(=O)n1C2)COC(=O)[C@]3(O)CC [SN-38] + CN(C)CCCOc1ccc(-c2ccc3ncc4c(c3c2)n(C2CCOCC2)c(=O)n4C)cn1 [AZD0156] (first compound max 0.3 µM, 7x7, partner max 1 µM) | 0.919 | 0.156 | 0.423 | 0.536 | 0.93 | 0.872 | 0.639 | 0.901 | 0.33 | 0.919 | 0.875 | 0.942 | 0.906 | 0.0708 | 0.753 | 0.224 | 0.993 | 0.907 | 0.864 | 0.634
COc1cccc(OCCCN)c1-c1cc(Nc2cnc(C#N)cn2)n[nH]1 [Prexasertib] + Cc1cc2ncnn2cc1Nc1ncc2c(n1)n(C1CCOCC1)c(=O)n2C [AZD7648] (first compound max 1 µM, 7x7, partner max 10 µM) | 0.88 | 0.517 | 0.755 | 0.444 | 0.852 | 0.601 | 0.477 | 1 | 0.714 | 0.755 | 0.762 | 0.84 | 0.921 | 0.222 | 0.72 | 0.294 | 0.877 | 0.89 | 0.901 | 0.704
CCN(CCO)CCCOc1ccc2c(Nc3cc(CC(=O)Nc4cccc(F)c4)[nH]n3)ncnc2c1 [AZD2811] + O=C(c1cc(Cc2n[nH]c(=O)c3ccccc23)ccc1F)N1CCN(C(=O)C2CC2)CC1 [Olaparib] (first compound max 1 µM, 7x7, partner max 10 µM) | 0.623 | 0.203 | 0.303 | 0.231 | 0.452 | 0.145 | 0.0869 | 0.405 | 0.423 | 0.617 | 0.233 | 0.381 | 0.335 | 0.168 | 0.309 | 0.239 | 0.408 | 0.718 | 0.392 | 0.226
Cc1c2c(nn1C)CSCc1cc(n(C)n1)CSc1cc(c3ccccc3c1)OCCCc1c(C(=O)O)n(C)c3c-2c(Cl)ccc13 [AZD5991] + Cc1cc2ncnn2cc1Nc1ncc2c(n1)n(C1CCOCC1)c(=O)n2C [AZD7648] (first compound max 1 µM, 7x7, partner max 10 µM) | 0.397 | 0.267 | 0.937 | 0.33 | 0.214 | 0.277 | 0.402 | 0.207 | 0.409 | 0.456 | 0.892 | 0.485 | 0.329 | 0.301 | 0.885 | 0.284 | 0.331 | 0.576 | 0.419 | 0.223
CC1(C)CCC(CN2CCN(c3ccc(C(=O)NS(=O)(=O)c4ccc(NCC5CCOCC5)c([N+](=O)[O-])c4)c(Oc4cnc5[nH]ccc5c4)c3)CC2)=C(c2ccc(Cl)cc2)C1 [Venetoclax] + C[C@@H]1COCCN1C2=NC(=NC(=C2)C3(CC3)[S@](=N)(=O)C)C4=C5C=CNC5=NC=C4 [AZD6738] (first compound max 1 µM, 7x7, partner max 10 µM) | 0.691 | 0.441 | 0.373 | 0.421 | 0.99 | 0.523 | 0.571 | 0.946 | 0.573 | 0.926 | 0.668 | 0.798 | 0.494 | 0.206 | 0.718 | 0.407 | 0.674 | 0.911 | 0.792 | 0.411
CCN(CCO)CCCOc1ccc2c(Nc3cc(CC(=O)Nc4cccc(F)c4)[nH]n3)ncnc2c1 [AZD2811] + C=CCn1c(=O)c2cnc(Nc3ccc(N4CCN(C)CC4)cc3)nc2n1-c1cccc(C(C)(C)O)n1 [AZD1775] (first compound max 1 µM, partner max 1 µM) | 0.716 | 0.481 | 0.752 | 0.331 | 0.798 | 0.169 | 0.297 | 0.96 | 0.574 | 0.539 | 0.439 | 0.675 | 0.393 | 0.125 | 0.634 | 0.233 | 0.482 | 0.841 | 0.732 | 0.48
Cc1c2c(nn1C)CSCc1cc(n(C)n1)CSc1cc(c3ccccc3c1)OCCCc1c(C(=O)O)n(C)c3c-2c(Cl)ccc13 [AZD5991] + C[C@@H]1COCCN1C2=NC(=NC(=C2)C3(CC3)[S@](=N)(=O)C)C4=C5C=CNC5=NC=C4 [AZD6738] (first compound max 1 µM, 7x7, partner max 10 µM) | 0.683 | 0.466 | 0.928 | 0.511 | 0.906 | 0.491 | 0.584 | 0.931 | 0.579 | 0.746 | 0.865 | 0.794 | 0.491 | 0.334 | 0.969 | 0.421 | 0.893 | 0.891 | 0.9 | 0.506
CC1(C)CCC(CN2CCN(c3ccc(C(=O)NS(=O)(=O)c4ccc(NCC5CCOCC5)c([N+](=O)[O-])c4)c(Oc4cnc5[nH]ccc5c4)c3)CC2)=C(c2ccc(Cl)cc2)C1 [Venetoclax] + COc1cc(Nc2ncc3c(n2)-c2ccc(Cl)cc2C(c2c(F)cccc2OC)=NC3)ccc1C(=O)O [Alisertib] (first compound max 1 µM, 7x7, partner max 10 µM) | 0.666 | 0.163 | 0.687 | 0.377 | 0.969 | 0.283 | 0.438 | 0.888 | 0.573 | 0.942 | 0.58 | 0.327 | 0.669 | 0.242 | 0.358 | 0.311 | 0.466 | 0.906 | 0.615 | 0.656
CN(C)CCCOc1ccc(-c2ccc3ncc4c(c3c2)n(C2CCOCC2)c(=O)n4C)cn1 [AZD0156] + C=CCn1c(=O)c2cnc(Nc3ccc(N4CCN(C)CC4)cc3)nc2n1-c1cccc(C(C)(C)O)n1 [AZD1775] (first compound max 1 µM, partner max 1 µM) | 0.7 | 0.486 | 0.777 | 0.418 | 0.816 | 0.185 | 0.363 | 0.962 | 0.589 | 0.442 | 0.587 | 0.623 | 0.526 | 0.195 | 0.587 | 0.336 | 0.535 | 0.836 | 0.423 | 0.422
